One may read the EC50 as the concentration needed to bring the measured effect to its halfway point.

Experimental findings from patent US8013169B2, “Naphthylmethylimidizoles as therapeutic agents” (Allergan, Inc, priority 2007, dated 2011) are described below.

The target in one test is T1, Alpha 1A (Homo sapiens, UniProt P35348).
T1 construct: expressed in transfected cells; host or cells: NIH-3T3
T1 sequence (P35348 1-466): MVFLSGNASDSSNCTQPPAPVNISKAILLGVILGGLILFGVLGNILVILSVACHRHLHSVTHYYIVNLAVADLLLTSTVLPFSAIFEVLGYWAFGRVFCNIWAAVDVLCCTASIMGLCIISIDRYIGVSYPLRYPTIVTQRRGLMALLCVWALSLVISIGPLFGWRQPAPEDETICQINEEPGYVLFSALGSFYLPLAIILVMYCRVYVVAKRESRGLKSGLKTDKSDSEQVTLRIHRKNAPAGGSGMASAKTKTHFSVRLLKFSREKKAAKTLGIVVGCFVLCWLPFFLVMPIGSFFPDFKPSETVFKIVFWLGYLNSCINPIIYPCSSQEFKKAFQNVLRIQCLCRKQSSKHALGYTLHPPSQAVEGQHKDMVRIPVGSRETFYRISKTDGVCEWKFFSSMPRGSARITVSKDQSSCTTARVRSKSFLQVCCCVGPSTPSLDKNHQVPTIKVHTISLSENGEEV
As to the kind of experiment: RSAT assay, Alpha 1A. The class given is cell-based. To be noted: for Alpha 1A (IA) intrinsic activity: ratio of maximal effect of drug to maximal effect of standard full agonist. The procedure:
(§1) The RSAT assay measures a receptor-mediated loss of contact inhibition that results in selective proliferation of receptor-containing cells in a mixed population of confluent cells. The increase in cell number is assessed with an appropriate transfected marker gene such as […]-galactosidase, the activity of which can be easily measured in a 96-well format. Receptors that activate the G protein, Gq, elicit this response. Alpha2 receptors, which normally couple to Gi, activate the RSAT response when coexpressed with a hybrid Gq protein that has a Gi receptor recognition domain, called Gq/i5.
NIH-3T3 cells are plated at a density of 2×10^6 cells in 15 cm dishes and maintained in Dulbecco's modified Eagle's medium supplemented with 10% calf serum. One day later, cells are cotransfected by calcium phosphate precipitation with mammalian expression plasmids encoding p-SV-β-galactosidase (5-10 μg), receptor (1-2 μg) and G protein (1-2 μg). 40 μg salmon sperm DNA may also be included in the transfection mixture. Fresh media is added on the following day and 1-2 days later, cells are harvested and frozen in 50 assay aliquots. Cells are thawed and 100 μl added to 100 μl aliquots of various concentrations of drugs in triplicate in 96-well dishes. Incubations continue 72-96 hr at 37° C. After washing with phosphate-buffered saline, β-galactosidase enzyme activity is determined by adding 200 μl of the chromogenic substrate (consisting of 3.5 mM o-nitrophenyl-β-D-galactopyranoside and 0.5% nonidet P-40 in phosphate buffered saline), incubating overnight at 30° C. and measuring optical density at 420 nm. The absorbance is a measure of enzyme activity, which depends on cell number and reflects a receptor-mediated cell proliferation. The efficacy or intrinsic activity is calculated as a ratio of the maximal effect of the drug to the maximal effect of a standard full agonist for each receptor subtype. Brimonidine, also called UK14304, the chemical structure of which is shown below, is used as the standard agonist for the alpha2A, alpha2B and alpha2C receptors. The EC50 is the concentration at which the drug effect is half of its maximal effect.
EC50 values are nanomolar. NA stands for “not active” at concentrations less than 10 micromolar. IA stands for “intrinsic activity.”

In a further test the target is T2, Alpha 2B (Homo sapiens, UniProt P18089).
T2 construct: expressed in transfected cells; host or cells: NIH-3T3
T2 sequence (P18089 1-450): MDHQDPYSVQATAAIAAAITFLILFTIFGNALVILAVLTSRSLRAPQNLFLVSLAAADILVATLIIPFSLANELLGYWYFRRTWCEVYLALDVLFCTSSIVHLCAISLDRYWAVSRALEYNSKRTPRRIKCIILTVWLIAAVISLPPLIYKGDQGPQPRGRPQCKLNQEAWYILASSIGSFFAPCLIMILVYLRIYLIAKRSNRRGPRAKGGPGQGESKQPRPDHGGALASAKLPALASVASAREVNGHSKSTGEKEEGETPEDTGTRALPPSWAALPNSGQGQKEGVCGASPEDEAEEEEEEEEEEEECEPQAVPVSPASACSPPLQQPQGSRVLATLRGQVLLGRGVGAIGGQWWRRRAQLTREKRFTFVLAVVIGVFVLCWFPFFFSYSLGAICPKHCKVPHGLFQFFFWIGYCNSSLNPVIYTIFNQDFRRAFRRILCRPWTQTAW
Kind of test: RSAT assay, Alpha 2B. It counts as cell-based. The procedure: as §1
NIH-3T3 cells are plated at a density of 2×10^6 cells in 15 cm dishes and maintained in Dulbecco's modified Eagle's medium supplemented with 10% calf serum. […] After washing with phosphate-buffered saline, β-galactosidase enzyme activity is determined by adding 200 μl of the chromogenic substrate (consisting of 3.5 mM o-nitrophenyl-β-D-galactopyranoside and 0.5% nonidet P-40 in phosphate buffered saline), incubating overnight at 30° C. and measuring optical density at 420 nm. The absorbance is a measure of enzyme activity, which depends on cell number and reflects a receptor-mediated cell proliferation. The efficacy or intrinsic activity is calculated as a ratio of the maximal effect of the drug to the maximal effect of a standard full agonist for each receptor subtype. […]

In the case of `CNc1ccc(Cc2nc[nH]c2C)c2ccccc12` [Compound 7, N-methyl-4-((5-methyl-1H-imidazol-4-yl)methyl)naphthalen-1-amine], at Alpha 1A, the midpoint of the response, the EC50, lay at 13 nM and the “Alpha 1A (IA) intrinsic activity” value is 1.2.

For `Cc1[nH]cnc1Cc1ccc(N)c2ccccc12` [Compound 8, 4-((5-methyl-1H-imidazol-4-yl)methyl)naphthalen-1-amine], the EC50 on Alpha 1A was found to be 55 nM; on Alpha 2B (RSAT, NIH-3T3 cells coexpressing Gq/i5, NA = not active at concentrations less than 10 micromolar) it was 146 nM. Further, the “Alpha 1A (IA) intrinsic activity” value on Alpha 1A was 1.01. Further, at Alpha 2B (ratio of maximal effect of drug to maximal effect of standard full agonist brimonidine), the “Alpha 2B (IA) intrinsic activity” value was found to be 0.46.
